Data taken from paper PMC5449454, “Anti-Double-Stranded DNA IgG Participates in Renal Fibrosis through Suppressing the Suppressor of Cytokine Signaling 1 Signals” (Frontiers in Immunology, 2017).
Where no end group is shown, it is not given here.

How the values were obtained:
MRL/lpr mice = settings: ref [28]; cited from earlier work
Excerpt: The JAK2/STAT1 pathway mediates the renal damage in lupus models induced by anti-dsDNA antibodies. […] Moreover, STAT1 deficiency in the lupus-like chronic graft-versus-host disease model led to a prolonged but amplified increase of anti-dsDNA IgG in sera and also higher proteinuria and mortality ([29]). This phenomenon might be du ...

anti-dsDNA IgG = test: MALDI-TOF MS, catalysis of peptide by anti-dsDNA IgG; set-up: species or system murine; settings: peptide 2 µg/ml with IgG (molar ratio = 1:5), 37°C, 30 min, triplicate
Procedure: Matrix-assisted laser desorption/ionization–time of flight mass spectrometry was performed for identifying the sequences of peptide fragments. As described previously ([36]), an ABI 4800 Analyzer (AB Science, Foster City, CA, USA) was used for such analysis. The ALW (L-form or D-form) and KIR peptides (2 µg/ml) were mixed with anti-dsDNA IgG or control IgG (molar ratio = 1:5), respectively. The mixtures were incubated at 37°C for 30 min. Then, these samples were diluted in distilled water (1:100) and then mixed with the α-cyano-4-hydroxycinnamic acid matrix at a ratio of 1:1. Samples in triplicate were then loaded to the MALDI target. Mass spectrum was produced on 80 individual spectra of each spot.

KIR peptide (SOCS1) = target: T1, KIR peptide (SOCS1) (Mus musculus, UniProt O35716); test: Surface plasmon resonance, JAK2 loop peptide over immobilized biotinylated KIR peptide; format: binding; settings: SPR, JAK2 loop peptide 0–250 nM
T1 construct: The KIR of SOCS1 was synthesized as a 16-mer peptide (2.09 kDa); purchased Sangon Biotech Company (Shanghai, China); host or cells: chemical synthesis
Procedure: The Biacore 3000 instrument (Biacore, Piscataway, NJ, USA) was used for the quantitation of binding affinities ([8], [35]). For anti-dsDNA IgG binding to KIR peptide, anti-dsDNA IgG (10 nM in MES buffer) was immobilized on a CM sensor chip (GE Healthcare, Port Washington, NY, USA), and then KIR peptide (0–250 nM in HEPES buffer) was run on chip. For JAK2 loop peptide binding to KIR peptide, the biotinylated KIR peptide (5 nM) was immobilized on streptavidin-coated sensor chip, followed by injection of JAK2 loop peptide (0–250 nM). A simple Langmuir model (A + B ↔ AB) was used for calculating binding kinetics.

[1] = target: T2, biotinylated SOCS1 kinase inhibitory region (KIR) peptide (also: biotinylated (position not given here)); test: SPR; Biacore 3000; biotinylated KIR peptide (5 nM) immobilised on a streptavidin-coated sensor chip, JAK2 loop peptide injected at 0-250 nM; simple Langmuir model (A + B ↔ AB); settings: both partners purified
T2 construct: Captured by its biotin on streptavidin-coated sensor chips and plates; An unbiotinylated KIR peptide was run over the immobilised anti-dsDNA IgG only; also called SOCS1-KIR; biotinylated KIR peptide; source: synthetic peptide (Sangon Biotech Company)
T2 peptide: DTHFRTFRSHSDYRRI

[2] = target: T2, biotinylated SOCS1 kinase inhibitory …; test: ELISA; inhibition ELISA; biotinylated KIR peptide (5 µg/ml) on streptavidin-coated 96-well plates; FITC-labeled JAK2 loop peptide (0.2 µg/ml) pre-incubated with serially diluted anti-dsDNA IgG (0.02 to 20 µg/ml) or control IgG; fluorescein intensity read; settings: both partners purified

Molecule: N#C/C(=C\c1ccc(O)c(O)c1)C(=O)NCc1ccccc1 [tyrphostin AG490]
- glomerular deposition of anti-dsDNA IgG (MRL/lpr mice): decrease
- phosphorylation of JAK2 (MRL/lpr mice): significantly inhibited
- phosphorylation of STAT1 (MRL/lpr mice): significantly inhibited
- proteinuria (MRL/lpr mice): decrease
- renal histological lesions (MRL/lpr mice): decrease
- serum titer of anti-dsDNA IgG (MRL/lpr mice): decrease

Molecule: DTHFRTFRSHSDYRRI [KIR peptide]
- catalysis of KIR peptide by anti-dsDNA IgG (anti-dsDNA IgG): almost catalyzed by anti-dsDNA IgG

Molecule: LPQDKEYYKVKEP [JAK2 loop peptide]
- Kd (KIR peptide (SOCS1); Biacore 3000, biotinylated KIR peptide (5 nM) immobilized on streptavidin chip, simple Langmuir model): 44.6 nM
- kon (KIR peptide (SOCS1); biotinylated KIR peptide immobilized, Langmuir model, read-out: Ka (association rate)): 13500 M⁻¹ s⁻¹
- koff (KIR peptide (SOCS1); biotinylated KIR peptide immobilized, Langmuir model, read-out: Kd (dissociation rate)): 0.000603 s⁻¹

B1: JAK2 loop peptide (peptide)
peptide: LPQDKEYYKVKEP
notes: loop region of Janus kinase 2 (JAK2), 13-mer, 1.64 kDa; the SPR methods name the 'JAK2 loop peptide' without a label; source: synthetic peptide (Sangon Biotech Company)
- Kd [1]: 44.6 nM
- koff [1]: 0.000603 s⁻¹
- kon [1]: 13500 M⁻¹ s⁻¹

B2: FITC-labeled JAK2 loop peptide (peptide)
peptide: LPQDKEYYKVKEP
modifications: also: FITC-labeled (position not given here)
notes: loop region of Janus kinase 2 (JAK2), 13-mer; also called FITC–JAK2 loop; FITC (0.39 kDa)–JAK2 loop; source: synthetic peptide (Sangon Biotech Company)
- binding result [2]: binds
